Reference: patent publication US20070129409A1, “Androgen receptor modulators” (priority 2003, published 2007)
Substitutions are numbered along the chain they refer to. Like-named read-outs stand apart in the source and are kept apart here.

Key:
[1] = molecular target: T1, hAR (human androgen receptor) (Homo sapiens, UniProt P10275); assay: Competitive binding analysis on hAR extracts with 3H-DHT tracer
T1 construct: made in house; host or cells: baculovirus/Sf9 insect cells
T1 sequence (P10275 1-920): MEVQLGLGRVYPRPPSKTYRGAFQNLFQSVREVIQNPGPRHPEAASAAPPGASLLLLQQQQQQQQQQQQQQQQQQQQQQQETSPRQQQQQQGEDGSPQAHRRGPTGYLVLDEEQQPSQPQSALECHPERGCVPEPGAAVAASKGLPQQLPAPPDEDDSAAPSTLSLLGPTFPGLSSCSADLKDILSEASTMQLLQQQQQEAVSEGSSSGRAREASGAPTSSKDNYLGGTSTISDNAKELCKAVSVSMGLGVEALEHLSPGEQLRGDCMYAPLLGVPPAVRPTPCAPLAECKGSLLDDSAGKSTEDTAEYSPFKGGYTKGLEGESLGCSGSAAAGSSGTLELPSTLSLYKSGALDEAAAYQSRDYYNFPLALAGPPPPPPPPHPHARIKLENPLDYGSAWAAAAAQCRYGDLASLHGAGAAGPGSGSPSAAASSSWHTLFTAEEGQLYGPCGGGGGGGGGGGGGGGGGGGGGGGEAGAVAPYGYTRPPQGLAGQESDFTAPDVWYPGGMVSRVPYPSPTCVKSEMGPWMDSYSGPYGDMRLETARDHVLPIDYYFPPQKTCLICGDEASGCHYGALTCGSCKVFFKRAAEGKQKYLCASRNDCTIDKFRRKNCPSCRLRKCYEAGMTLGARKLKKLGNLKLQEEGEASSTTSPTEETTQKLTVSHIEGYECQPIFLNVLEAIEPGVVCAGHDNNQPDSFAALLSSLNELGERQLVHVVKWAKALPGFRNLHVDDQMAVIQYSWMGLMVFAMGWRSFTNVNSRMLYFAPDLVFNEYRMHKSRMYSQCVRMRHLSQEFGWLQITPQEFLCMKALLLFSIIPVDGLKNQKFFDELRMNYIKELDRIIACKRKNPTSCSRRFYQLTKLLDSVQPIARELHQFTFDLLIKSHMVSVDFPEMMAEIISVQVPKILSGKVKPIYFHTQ
Description: The description below describes how the assay was carried out.
Competitive binding analysis was performed on baculovirus/Sf9 generated hAR extracts in the presence or absence of different concentrations of test agent and a fixed concentration of ^3H-dihydrotestosterone (^3H-DHT) as tracer. This binding assay method is a modification of a protocol previously described (Liao S., et. al. J. Steroid Biochem. 20:11-17 1984). Briefly, progressively decreasing concentrations of compounds are incubated in the presence of hAR extract (Chang et al. P.N.A.S. Vol. 89, pp. […], 1992), hydroxylapatite, and 1 nM^3 H-DHT for one hour at 4° C. Subsequently, the binding reactions are washed three times to completely remove excess unbound ^3H-DHT. hAR bound ^3H-DHT levels are determined in the presence of compounds (=i.e competitive binding) and compared to levels bound when no competitor is present (=i.e. maximum binding). Compound binding affinity to the hAR is expressed as the concentration of compound at which one half of the maximum binding is inhibited.

androgen receptor = molecular target: T2, androgen receptor (Homo sapiens, UniProt P10275, Q868H); assay: AR antagonist cell assay (MDA-MB453-MMTV luciferase reporter, 100 pM DHT); type: cell-based
T2 construct: a human breast tumor cell line expressing androgen receptor; endogenous in cells; host or cells: MDA-MB453-MMTV clone 54-19 (MDA-MB-453 stably transfected with the MMTV-luciferase reporter only)
T2 sequence (P10275 1-920 Q868H): T1 sequence (P10275 1-920) with Q868H
Description: The compounds ability to antagonize the effects of androgen on the androgen receptor were determined in a whole cell assay as described immediately below.
Experimental Procedure for AR Antagonist Cell Assay
This cell line is a stable transfected cell line with MDA-MB453 cell background (a human breast tumor cell line expressing androgen receptor). A MMTV minimal promoter containing ARE was first cloned in front of a firefly luciferase reporter gene. Then the cascade was cloned into transfection vector pUV120puro. […] Puromycin resistant stable cell line was selected.
Cell Culture Media and Reagents:
Plating medium: DMEM (phenol red free), 10% charcoal treated HyClone serum, 1% L-glutamine
Assay medium: DMEM (phenol red free), 1% charcoal treated HyClone serum, 1% L-glutamine, and 1% penicillin/streptomycin
• 1. Cells are maintained in culture medium, splitting cells when they reach 80-90% confluence • 2. To test compounds, 10,000 cells/well are plated to opaque 96 cell culture plate in 100 uvwell plating medium, culture for overnight at 37° C. in cell culture incubator • 3. […] Add 10 ul/well freshly prepared DHT (final concentration at 100 pM) to each well, incubate at 37° C. for 17 hr (overnight) • 5.
The results are reported as the mean of multiple tests as described below (the numbers of tests are indicated in the footnote). N.D. denotes that the compound was not tested.

Male C3H/HeN mice = assay: Modified telogen conversion assay; type: in vivo; settings: 3% w/v in propylene glycol (30%)/ethanol (70%), topical, twice daily for 4 weeks
Description: The telogen conversion assay measures the potential of a compound to convert mice in the resting stage of the hair growth cycle (“telogen”) to the active stage of the hair growth cycle (“anagen”). This assay takes advantage of the fact that the fur (i.e. hair) of 7 week old C3H/HeN mice is in the telogen phase. This phase continues until about 75 days of age. In this assay, selected areas of the mice are shaved, contacted with a test agent, or a control, and the difference in the rate of hair growth is measured (i.e. induction of the anagen phase). The first sign of anagen is the darkening of skin color as melanocytes in the follicles start to synthesize melanin, in preparation for the production of pigmented hairs. This model has a number of advantages. This includes the ready availability of female CH3HeN mice, the ability to screen large numbers of compounds quickly, and the ease of housing and handling such animals.
It has been discovered that male C3H/HeN mice may be used in the telogen conversion assay, when evaluating anti-androgen test compounds. Thus, the model relates to a modification of the existing telogen conversion assay. […]
The treatment area was observed and graded every other day for signs of hair growth. The hair growth response was quantified by recording, for each animal, the day on which signs of hair growth first appeared over the treated area. […]

[2] = after 7 years of treatment; cited from earlier work
[3] = baculovirus/Sf9 generated hAR extract, 1 nM 3H-DHT, one hour at 4° C., mean of repeated tests, read-out: AR Binding IC50
[4] = MDA-MB453-MMTV clone 54-19, 100 pM DHT, 17 hr, mean of multiple tests, read-out: AR Cell IC50

| Compound | IC50 [1, 3] | IC50 [1] | IC50 (androgen receptor; [4]) | also measured |
| --- | --- | --- | --- | --- |
| CN(Cc1ccccc1)c1cc(C(F)(F)F)c(C#N)cn1 [Example 7, 6-(Benzyl-methyl-amino)-4-trifluoromethyl-nicotinonitrile] | 0.538 µM | – | – | – |
| CCC(C)N(C)c1cc(C(F)(F)F)c(C#N)cn1 (centres unmarked) [Example 4, 6-(sec-Butyl-methyl-amino)-4-trifluoromethyl-nicotinonitrile] | – | 0.01 µM | > 1 µM | – |
| CCCCN(CCO)c1cc(C(F)(F)F)c(C#N)cn1 [Example 5, 6-[Butyl-(2-hydroxy-ethyl)-amino]-4-trifluoromethyl-nicotinonitrile] | 0.548 µM | – | – | – |
| CCCN(c1cc(C(F)(F)F)c(C#N)cn1)C1CCCCC1 [Example 8, 6-(Cyclohexyl-propyl-amino)-4-trifluoromethyl-nicotinonitrile] | 0.425 µM | – | – | – |
| CCCN(CCC)c1cc(C(F)(F)F)c(C#N)c(Cl)n1 [Example 11, 6-Dipropylamino-2-chloro-4-rtifluoromethyl-nicotinonitrile] | – | 0.0082 µM | > 1 µM | – |
| 2-Chloro-6-(methyl-propyl-amino)-4-trifluoromethyl-nicotinonitrile [Example 12] | 0.088 µM | – | 0.587 µM | – |
| C[C@H](c1ccccc1)N(C)c1cc(C(F)(F)F)c(C#N)cn1 [Example 1, (R)-(+)-6-[Methyl-(1-Phenyl-ethyl)-amino]-4-trifluoromethyl-nicotinonitrile] | – | 0.02 µM | – | IC50 (androgen receptor): 0.045 µM; hair growth (induction of anagen) (Male C3H/HeN mice): produced substantial hair growth |
| C[C@H](c1ccccc1)N(C)c1cc(C(F)(F)F)c(C#N)cn1 (hydrate or solvate) [Example 1, (R)-(+)-6-[Methyl-(1-Phenyl-ethyl)-amino]-4-trifluoromethyl-nicotinonitrile] | – | – | – | melting point: 47.2 to 47.7 °C |
| CCCN(CCC)c1cc(C(F)(F)F)c(C#N)cn1 [Example 3, 6-Dipropylamino-4-trifluoromethyl-nicotinonitrile] | – | 0.022 µM | > 1 µM | – |
| NCCCC(O)(P(=O)(O)O)P(=O)(O)O [alendronate] | – | – | – | increase in spinal BMD [2]: ≤ 11% |
| CCC(C)N(C)c1cc(C(F)(F)F)c(C#N)c(Cl)n1 (centres unmarked) [Example 10] | – | 0.0005 µM | > 1 µM | – |
| CC(c1ccccc1)N(C)c1cc(C(F)(F)F)c(C#N)cn1 (centres unmarked) [Example 2, 6-[Methyl-(1-Phenyl-ethyl)-amino]-4-trifluoromethyl-nicotinonitrile] | – | 0.123 µM | – | IC50 (androgen receptor): 0.229 µM |
